Four compounds from patent US20260007597A1, “COMPOSITIONS AND METHODS FOR TREATMENT OF VIRUS-INDUCED AIRWAY FIBROSIS” (priority 2022, published 2026) can be followed below.

Entries after “also recorded” stand apart in the source; their conditions may differ.

Assay [1] deals with pSARS-2 infected NHBE cells (infection-induced cell surface shedding of profibrotic enzymes). In kind it is cell-based, human.
For a further assay, the target named is thrombin (Homo sapiens, UniProt P00734). The assay is classed as biochemical. The conditions noted are these: thrombin ~0.2 U/ml; stoichiometric concentration of hirudin.
Assay [2] concerns SARS-COV-2 pseudovirus (pSARS-2) infected NHBE cells. The assay is classed as cell-based, human. The conditions noted are these: inhibitor added during clotting assay (5 U/ml hirudin, 5 μM dabigatran, 5 μM argatroban), turbidity 350 nm / confocal.
Assay [3] deals with replication competent SARS-COV-2 infected NHBE cells. The assay is classed as cell-based, human. Conditions: WA-1, beta and delta strains.
In assay [4] the test system is Wuhan pSARS infected NHBE supernatants. The assay is classed as cell-based, human.

Turning to `CC1(C)SCCN(S(=O)(=O)c2ccc(Oc3ccncc3)cc2)[C@H]1C(=O)NO` [prinomastat], in assay [1], the “fibrin clot formation, inhibitor present during the viral infection” value is reported as “significantly reduced; also recorded: inhibited”. As for hirudin, on thrombin, the “thrombin induced fibrin clotting” value is “inhibition”. For the same compound, the “infection-induced fibrin clot formation” value in assay [2] is recorded as “completely suppressed”. The “fibrin clotting induced by replication competent SARS-CoV-2 infection of NHBE cells” value in assay [3] is recorded as “inhibited”. For the compound `CNC(=O)[C@H](Cc1ccccc1)NC(=O)[C@H](CC(C)C)[C@H](CSc1cccs1)C(=O)NO` [BB-94, batimastat], the “fibrin clot formation, inhibitor present during the viral infection” value in assay [1] is on record as “significantly reduced; also recorded: inhibited; also recorded: reduced fibrin clot formation”. In addition, the “fibrin clotting step, inhibitor added post-infection” value in assay [4] is on record as “did not inhibit”. On to `CC1CNc2c(cccc2S(=O)(=O)N[C@@H](CCCNC(=N)N)C(=O)N2CC[C@@H](C)C[C@@H]2C(=O)O)C1` (stereo partly shown) [argatroban], for which, in assay [2], the “infection-induced fibrin clot formation” value is given as “inhibited”.
